Measured values: US10167262B2, “Herbicidal substituted 3-arylpyrazoles” (FMC CORPORATION, priority 2014, dated 2019)
Like-named read-outs stand apart in the source and are kept apart here.

Legend:
Assay type in all cases: in vivo
[1] = system: barnyardgrass (Echinochloa crus-galli); test: Test A pre-/postemergence greenhouse herbicide test, visual injury rating 0-100; conditions: Echinochloa crus-galli, 240 h, 1000 g ai/ha, read-out: Plant response rating (0 to 100 scale), Barnyardgrass
Procedure, shortened: (§1)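 Greenhouse plants received compound either as directed soil spray at planting or as postemergence spray at the one- to two-leaf stage (2–10 cm). Evaluated after about 10 days by visual comparison with untreated controls.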

corn (Zea mays) = test: as above; conditions: Zea mays, 240 h, 1000 g ai/ha, read-out: Plant response rating (0 to 100 scale), Corn
Procedure, shortened: as §1

[2] = system: giant foxtail (Setaria faberii); test: as above; conditions: Setaria faberi, 240 h, 1000 g ai/ha, read-out: Plant response rating (0 to 100 scale), Foxtail, Giant
Procedure, shortened: as §1

[3] = system: large (Lg) crabgrass (Digitaria sanguinalis); test: as above; conditions: Digitaria sanguinalis, 240 h, 1000 g ai/ha, read-out: Plant response rating (0 to 100 scale), Crabgrass, Large
Procedure, shortened: as §1

[4] = system: morningglory (Ipomoea spp.); test: as above; conditions: Ipomoea, pre-emergence, 240 h; Preemergence, 1000 g ai/ha; read-out: Plant response rating (0 to 100 scale), Morningglory
Procedure, shortened: as §1

[5] = system: pigweed (Amaranthus retroflexus); test: as above; conditions: Amaranthus retroflexus, 240 h, 1000 g ai/ha, read-out: Plant response rating (0 to 100 scale), Pigweed
Procedure, shortened: as §1

[6] = system: velvetleaf (Abutilon theophrasti); test: as above; conditions: Abutilon theophrasti, 240 h, 1000 g ai/ha, read-out: Plant response rating (0 to 100 scale), Velvetleaf
Procedure, shortened: as §1

[7] = system: wheat (Triticum aestivum); test: as above; conditions: Triticum aestivum, 240 h, 1000 g ai/ha, read-out: Plant response rating (0 to 100 scale), Wheat
Procedure, shortened: as §1

[8] = system: Italian ryegrass (Lolium multiflorum); test: Test C pre-/postemergence greenhouse test, plant response rating 0-100; conditions: Lolium multiflorum; for pest or weed control at 62 g/ha: 62 g ai/ha; for pest or weed control at 125 g/ha: 125 g ai/ha; for pest or weed control at 250 g/ha: 250 g ai/ha; for pest or weed control at 500 g/ha: 500 g ai/ha
Procedure, shortened: (§2)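 Greenhouse test. Preemergence: seed in loam:sand, sprayed with formulated chemical (solvent + surfactant). Postemergence: 1–4 leaf plants, 2–18 cm, peat-based potting medium. Hold 13–15 d; score visually, 0 (none) to 100 (complete control); dash = not tested.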

[9] = system: galium (catchweed bedstraw, Galium aparine); test: as above; conditions: Galium; for pest or weed control at 62 g/ha: 62 g ai/ha; for pest or weed control at 125 g/ha: 125 g ai/ha; for pest or weed control at 250 g/ha: 250 g ai/ha; for pest or weed control at 500 g/ha: 500 g ai/ha
Procedure, shortened: as §2

[10] = system: morningglory (Ipomoea coccinea); test: as above; conditions: Ipomoea; for pest or weed control at 62 g/ha: 62 g ai/ha; for pest or weed control at 125 g/ha: 125 g ai/ha; for pest or weed control at 250 g/ha: 250 g ai/ha; for pest or weed control at 500 g/ha: 500 g ai/ha
Procedure, shortened: as §2

[11] = system: ragweed (common ragweed, Ambrosia elatior); test: as above; conditions: Ambrosia artemisiifolia; for pest or weed control at 62 g/ha: 62 g ai/ha; for pest or weed control at 125 g/ha: 125 g ai/ha; for pest or weed control at 250 g/ha: 250 g ai/ha; for pest or weed control at 500 g/ha: 500 g ai/ha;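 as to all read-outs here: 0 is no effect and 100 is complete control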
Procedure, shortened: as §2

[12] = system: velvetleaf (Abutilon theophrasti); test: as above; conditions: Abutilon theophrasti; for pest or weed control at 62 g/ha: 62 g ai/ha; for pest or weed control at 125 g/ha: 125 g ai/ha; for pest or weed control at 250 g/ha: 250 g ai/ha; for pest or weed control at 500 g/ha: 500 g ai/ha
Procedure, shortened: as §2

[13] = post-emergence, Postemergence, read-out: Plant response rating (0 to 100), Ryegrass, Italian
[14] = post-emergence, Postemergence, scale 0 to 100
[15] = pre-emergence, Preemergence, read-out: Plant response rating, Ryegrass, Italian
[16] = post-emergence, Postemergence, read-out: Plant response rating (0 to 100), Galium
[17] = pre-emergence, Preemergence, read-out: Plant response rating, Galium
[18] = post-emergence, Postemergence, read-out: Plant response rating (0 to 100), Morningglory
[19] = pre-emergence, Preemergence, read-out: Plant response rating, Morningglory
[20] = post-emergence, Postemergence, read-out: Plant response rating (0 to 100), Ragweed
[21] = pre-emergence, Preemergence, read-out: Plant response rating, Ragweed
[22] = post-emergence, Postemergence, read-out: Plant response rating (0 to 100), Velvetleaf
[23] = pre-emergence, Preemergence, read-out: Plant response rating, Velvetleaf

`C#CCn1cc(C(=O)c2ccccc2)c(-c2cc(Cl)cc(Cl)c2)n1` [Compound 39, [3-(3,5-dichlorophenyl)-1-(2-propyn-1-yl)-1H-pyrazol-4-yl]phenylmethanone] was tested, and the pest or weed control at 1000 g/ha ([1]; post-emergence, Postemergence) was 0%, the pest or weed control at 1000 g/ha ([1]; pre-emergence, Preemergence) was 0% and the plant injury at 1000 g/ha (corn (Zea mays); post-emergence, Postemergence) was 0%. It also gave a plant injury at 1000 g/ha (corn (Zea mays); pre-emergence, Preemergence) of 0%, a pest or weed control at 1000 g/ha ([2]; post-emergence, Postemergence) of 0% and a pest or weed control at 1000 g/ha ([2]; pre-emergence, Preemergence) of 0%. For the same molecule, the pest or weed control at 1000 g/ha ([3]; post-emergence, Postemergence) was 0%, the pest or weed control at 1000 g/ha ([3]; pre-emergence, Preemergence) was 0% and the pest or weed control at 1000 g/ha [4] was 0%. The pest or weed control at 1000 g/ha ([5]; post-emergence, Postemergence) was 100%, the pest or weed control at 1000 g/ha ([5]; pre-emergence, Preemergence) was 100% and the pest or weed control at 1000 g/ha ([6]; post-emergence, Postemergence) was 100%. For the same molecule, the pest or weed control at 1000 g/ha ([6]; pre-emergence, Preemergence) was 100%, the plant injury at 1000 g/ha ([7]; post-emergence, Postemergence) was 0% and the plant injury at 1000 g/ha ([7]; pre-emergence, Preemergence) was 0%. For the same molecule, the pest or weed control at 62 g/ha [8, 13] was 0%, the pest or weed control at 125 g/ha [8, 13] was 0% and the pest or weed control at 250 g/ha [8, 14] was 0%. It also gave a pest or weed control at 500 g/ha [8, 14] of 0%, a pest or weed control at 62 g/ha [8, 15] of 0% and a pest or weed control at 125 g/ha [8, 15] of 0%. It also gave a pest or weed control at 250 g/ha ([8]; pre-emergence, Preemergence) of 0%, a pest or weed control at 500 g/ha ([8]; pre-emergence, Preemergence) of 0% and a pest or weed control at 62 g/ha [9, 16] of 0%. The pest or weed control at 125 g/ha [9, 16] was 0%, the pest or weed control at 250 g/ha [9, 14] was 0% and the pest or weed control at 500 g/ha [9, 14] was 0%. It also gave a pest or weed control at 62 g/ha [9, 17] of 0%, a pest or weed control at 125 g/ha [9, 17] of 0% and a pest or weed control at 250 g/ha ([9]; pre-emergence, Preemergence) of 5%. The pest or weed control at 500 g/ha ([9]; pre-emergence, Preemergence) was 80%, the pest or weed control at 62 g/ha [10, 18] was 0% and the pest or weed control at 125 g/ha [10, 18] was 0%. For the same molecule, the pest or weed control at 250 g/ha [10, 14] was 10%, the pest or weed control at 500 g/ha [10, 14] was 10% and the pest or weed control at 62 g/ha [10, 19] was 20%. For the same molecule, the pest or weed control at 125 g/ha [10, 19] was 20%, the pest or weed control at 250 g/ha ([10]; pre-emergence, Preemergence) was 20% and the pest or weed control at 500 g/ha ([10]; pre-emergence, Preemergence) was 20%. For the same molecule, the pest or weed control at 62 g/ha [11, 20] was 10%, the pest or weed control at 125 g/ha [11, 20] was 10% and the pest or weed control at 250 g/ha [11, 14] was 35%. It also gave a pest or weed control at 500 g/ha [11, 14] of 35%, a pest or weed control at 62 g/ha [11, 21] of 0% and a pest or weed control at 125 g/ha [11, 21] of 20%. For the same molecule, the pest or weed control at 250 g/ha ([11]; pre-emergence, Preemergence) was 45%, the pest or weed control at 500 g/ha ([11]; pre-emergence, Preemergence) was 45% and the pest or weed control at 62 g/ha [12, 22] was 75%. The pest or weed control at 125 g/ha [12, 22] was 85%, the pest or weed control at 250 g/ha [12, 14] was 85% and the pest or weed control at 500 g/ha [12, 14] was 98%. For the same molecule, the pest or weed control at 62 g/ha [12, 23] was 55%, the pest or weed control at 125 g/ha [12, 23] was 65% and the pest or weed control at 250 g/ha ([12]; pre-emergence, Preemergence) was 65%. It also gave a pest or weed control at 500 g/ha ([12]; pre-emergence, Preemergence) of 80%.
